Molecules are shown by their SMILES. Where two headings read alike, the source gives them in different places.

The assay has as its target T1, TGFβ R1 (Homo sapiens, UniProt P36897).
T1 sequence (P36897 34-503): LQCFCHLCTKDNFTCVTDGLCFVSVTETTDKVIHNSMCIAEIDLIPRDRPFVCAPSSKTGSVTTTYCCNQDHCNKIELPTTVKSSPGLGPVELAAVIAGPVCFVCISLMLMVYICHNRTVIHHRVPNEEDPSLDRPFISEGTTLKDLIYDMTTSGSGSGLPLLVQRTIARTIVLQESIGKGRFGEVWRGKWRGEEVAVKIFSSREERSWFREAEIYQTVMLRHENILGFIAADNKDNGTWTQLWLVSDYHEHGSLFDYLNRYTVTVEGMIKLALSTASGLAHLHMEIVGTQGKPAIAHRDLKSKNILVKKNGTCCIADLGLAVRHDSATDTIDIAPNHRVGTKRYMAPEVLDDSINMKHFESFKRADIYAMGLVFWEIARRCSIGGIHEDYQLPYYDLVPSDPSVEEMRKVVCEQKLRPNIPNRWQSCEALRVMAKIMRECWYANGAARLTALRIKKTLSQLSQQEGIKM
As to the kind of experiment: TGFβ R1 autophosphorylation protocol (33P-ATP, phosphocellulose filter plate). Conditions: 10 uM ATP, read-out: IC50 for Kinase Inhibition. The class given is biochemical. How it is done: The compounds of the invention were tested for their ability to inhibit TGFβ by a TGFβ R^1 autophosphorylation protocol. This was conducted as follows: Compound dilutions and reagents were prepared fresh daily. Compounds were diluted from DMSO stock solutions to 2 times the desired assay concentration, keeping final DMSO concentration in the assay less than or equal to 1%. TGFβ R1 was diluted to 4 times the desired assay concentration in buffer+DTT. ATP was diluted into 4× reaction buffer, and gamma-^33P-ATP was added at 60 uCi/mL.
The assay was performed by adding 10 ul of the enzyme to 20 ul of the compound solution. The reaction was initiated by the addition of 10 ul of ATP mix. Final assay conditions included 10 uM ATP, 170 nM TGFβ R1, and […] in 20 mM MOPS, pH7. The reactions were incubated at room temperature for 20 minutes. The reactions were stopped by transferring 23 ul of reaction mixture onto a phosphocellulose 96-well filter plate, which had been pre-wetted with 15 ul of 0.25M H3PO4 per well. After 5 minutes, the wells were washed 4× with 75 mM H3PO4 and once with 95% ethanol. The plate was dried, scintillation cocktail was added to each well, and the wells were counted in a Packard TopCount microplate scintillation counter.

Setting [1] is: 170 nM TGFβ R1, 20 minutes at room temperature.
Setting [2] is: 170 nM TGFβ R1, room temperature 20 minutes.

The term IC50 denotes the concentration that inhibits the measured activity by half. For the molecule `COc1cnc(-c2cc(Cl)ccc2F)nc1Nc1ccncc1C(=O)NCC1CCCC[C@H]1O` (stereo in doubt) [Compound 31, 4-[2-(5-Chloro-2-fluoro-phenyl)-5-methoxy-pyrimidin-4-ylamino]-N-(2-hydroxy-cyclohexylmethyl)-nicotinamide], the IC50 under setting [1] is 370 nM.

For `CNC(=O)NCCNC(=O)c1cnccc1Nc1nc(-c2cc(Cl)ccc2F)ncc1OC` [Compound 68, 4-[2-(5-chloro-2-fluoro-phenyl)-5-methoxy-pyrimidin-4-ylamino]-N-[2-(3-methyl-ureido)-ethyl]nicotinamide], the IC50 under setting [1] was determined as 1540 nM.

On to `CC(C)c1cnc(-c2cc(Cl)ccc2F)nc1Nc1ccncc1C(=O)NC1CC1CO` (centres unmarked) [Compound 179, 4-[2-(5-Chloro-2-fluoro-phenyl)-5-isopropyl-pyrimidin-4-ylamino]-N-(2-hydroxymethyl-cyclopropyl)-nicotinamide], for which the IC50 under setting [2] amounted to 5 nM.

As for `CNC(=O)[C@@H]1CCCCN1CCCNC(=O)c1cnccc1Nc1nc(-c2cc(Cl)ccc2F)ncc1C(C)C` [Compound 184, 4-[2-(5-Chloro-2-fluoro-phenyl)-5-isopropyl-pyrimidin-4-ylamino]-N-[3-(2-methylcarbamoyl-piperidin-1-yl)-propyl}-nicotinamide], under setting [2], the IC50 amounted to 12 nM.

`CC(C)c1cnc(-c2cc(Cl)ccc2F)nc1Nc1ccncc1C(=O)NC(CO)CO` [Compound 193, 4-[2-(5-Chloro-2-fluoro-phenyl)-5-isopropyl-pyrimidin-4-ylamino]-N-(2-hydroxy-1-hydroxymethyl-ethyl)-nicotinamide]: the IC50 under setting [2] was 27 nM.

As for `COc1cnc(-c2cc(Cl)ccc2F)nc1Nc1ccncc1C(=O)C(=O)N(C)C` [Compound 239, 2-{4-[2-(5-Chloro-2-fluoro-phenyl)-5-methoxy-pyrimidin-4-ylamino]-pyridin-3-yl]-N,N-dimethyl-2-oxo-acetamide], the IC50 under setting [2] stood at 7740 nM.

For `CC(C)c1cnc(-c2cc(Cl)ccc2F)nc1Nc1ccncc1C(=O)NC[C@H](C)OC(=O)[C@@H](C)N` [Compound 205, 2-Amino-propionic acid 2-({4-[2-(5-chloro-2-fluoro-phenyl)-5-isopropyl-pyrimidin-4-ylamino]-pyridine-3-carbonyl}-amino)-1-methyl-ethyl ester], the half-maximal inhibitory concentration (IC50) under setting [2] was determined as 10 nM.

For the molecule `COC(=O)C1CCCN1CCCNC(=O)c1cnccc1Nc1nc(-c2cc(Cl)ccc2F)ncc1OC` (centres unmarked) [Compound 175, 1-[3-({4-[2-(5-Chloro-2-fluoro-phenyl)-5-methoxy-pyrimidin-4-ylamino]-pyridine-3-carbonyl}-amino)-propyl]-pyrrolidine-2-carboxylic acid methyl ester], the IC50 under setting [2] came out at 31 nM.

Consider `COc1cnc(-c2cc(Cl)ccc2F)nc1Nc1ccncc1C(=O)N1CC[C@H](N)C1` [Compound 211, (3-Amino-pyrrolidin-1-yl)-{4-[2-(5-chloro-2-fluoro-phenyl)-5-methoxy-pyrimidin-4-ylamino]-pyridin-3-yl)-methanone], for which the IC50 under setting [2] stood at 258 nM.

Turning to `CN(C)c1cnc(-c2cc(Cl)ccc2F)nc1Nc1ccncc1C(=O)NCC(C)(C)O` [Compound 51], under setting [1], the IC50 was 120 nM.

As for `CC(C)c1cnc(-c2cc(Cl)ccc2F)nc1Nc1ccncc1C(=O)NC1C[C@H]1CO` (stereo in doubt) [Compound 216, 4-[2-(5-Chloro-2-fluoro-phenyl)-5-isopropyl-pyrimidin-4-ylamino]-N-(2-hydroxymethyl-cyclopropyl)-nicotinamide], the IC50 under setting [2] came out at 10 nM.

For `COc1cnc(-c2cc(Cl)ccc2F)nc1Nc1ccncc1C(=O)NCCCNC(=O)CO[C@H]1O[C@H](CO)[C@H](O)[C@H](O)[C@H]1O` [Compound 140, 4-[2-(5-Chloro-2-fluoro-phenyl)-5-methoxy-pyrimidin-4-ylamino]-N-{3-[2-(3,4,5-trihydroxy-6-hydroxymethyl-tetrahydro-pyran-2-yloxy)-acetylamino]-propyl}-nicotinamide], under setting [1], the IC50 came to 44 nM.

Take `O=C(NC1CC1)c1cnccc1Nc1nc(-c2cc(Cl)ccc2F)ncc1N1CCCC1` [Compound 21, 4-[2-(5-Chloro-2-fluoro-phenyl)-5-pyrrolidin-1-yl-pyrimidin-4-ylamino]-N-cyclopropyl-nicotinamide]: the IC50 under setting [1] stood at 180 nM.

Take `CC(C)c1cnc(-c2cc(Cl)ccc2F)nc1Nc1ccncc1C(=O)N1CCNCC1` [Compound 232, {4-[2-(5-Chloro-2-fluoro-phenyl)-5-isopropyl-pyrimidin-4-ylamino]-pyridin-3-yl}-piperazin-1-yl-methanone]: the IC50 under setting [2] stood at 990 nM.

For the molecule `CC(C)c1cnc(-c2cc(Cl)ccc2F)nc1Nc1ccncc1C(=O)N1CCC[C@@H](O)C1` [Compound 217, {4-[2-(5-Chloro-2-fluoro-phenyl)-5-isopropyl-pyrimidin-4-ylamino]-pyridin-3-yl}-(3-hydroxy-piperidin-1-yl)-methanone], under setting [2], the IC50 turned out to be 1210 nM.

Take `COc1cnc(-c2cc(Cl)ccc2F)nc1Nc1ccncc1C(=O)N[C@@H]1CCOC1=O` [Compound 62, 4-[2-(5-Chloro-2-fluoro-phenyl)-5-methoxy-pyrimidin-4-ylamino]-N-(2-oxo-tetrahydro-furan-3-yl)-nicotinamide]: the IC50 under setting [1] amounted to 360 nM.

As to `CC(C)c1cnc(-c2cc(Cl)ccc2F)nc1Nc1ccncc1C(=O)NC[C@H](C)OC(=O)[C@H](C)N` [Compound 204, 2-Amino-propionic acid 2-({4-[2-(5-chloro-2-fluoro-phenyl)-5-isopropyl-pyrimidin-4-ylamino]-pyridine-3-carbonyl}-amino)-1-methyl-ethyl ester], the IC50 under setting [2] was found to be 25 nM.

On to `CC(C)c1cnc(-c2cc(Cl)ccc2F)nc1Nc1ccncc1C(=O)NCCC(=O)N1CCC[C@H]1C(=O)N(C)C` [Compound 194, 4-[2-(5-Chloro-2-fluoro-phenyl)-5-isopropyl-pyrimidin-4-ylamino]-N-[3-(2-dimethyl-carbamoyl-pyrrolidin-1-yl)-3-oxo-propyl]-nicotinamide], for which the IC50 under setting [2] was 41 nM.

Take `COc1cnc(-c2cc(Cl)ccc2F)nc1Nc1ccncc1C(=O)NC1CCN(C(=O)OC(C)(C)C)C1` (centres unmarked) [Compound 82, 3-((4-[2-(5-Chloro-2-fluoro-phenyl)-5-methoxy-pyrimidin-4-ylamino]-pyridine-3-carbonyl)-amino)-pyrrolidine-1-carboxylic acid tert-butyl ester]: the concentration for half-maximal inhibition (IC50) under setting [1] stood at 310 nM.

As for `COc1cnc(-c2cc(Cl)ccc2F)nc1Nc1ccncc1C(=O)NC1CN(C(=O)OC(C)(C)C)C1` [Compound 86, 3-({4-[2-(5-Chloro-2-fluoro-phenyl)-5-methoxy-pyrimidin-4-ylamino]-pyridine-3-carbonyl}-amino)-azetidine-1-carboxylic acid tert-butyl ester], the IC50 under setting [1] amounted to 310 nM.

As to `O=C(c1cnccc1Nc1nc(-c2cc(Cl)ccc2F)ncc1C1CCCC1)N1CCOCC1` [Compound 227, {4-[2-(5-Chloro-2-fluoro-phenyl)-5-cyclopentyl-pyrimidin-4-ylamino]-pyridin-3-yl}-morpholin-4-yl-methanone], the IC50 under setting [2] is 330 nM.

As to `O=C(NC1CC1)c1cnccc1Nc1nc(-c2cc(Cl)ccc2F)ncc1Br` [Compound 108, 4-[5-Bromo-2-(5-chloro-2-fluoro-phenyl)-pyrimidin-4-ylamino]-N-cyclopropyl-nicotinamide], the IC50 under setting [1] was determined as 2500 nM.

For `COc1cnc(-c2cc(Cl)ccc2F)nc1Nc1ccncc1C(=O)NCCNCCC1O[C@H](CO)[C@@H](O)[C@H](O)[C@@H]1O` (some centres unmarked) [Compound 151], the IC50 under setting [1] was found to be 4 nM.

Consider `CN1CCN(C(=O)c2cnccc2Nc2nc(-c3cc(Cl)ccc3F)ncc2C2CCCC2)CC1` [Compound 213, {4-[2-(5-Chloro-2-fluoro-phenyl)-5-cyclopentyl-pyrimidin-4-ylamino]-pyridin-3-yl}-(4-methyl-piperazin-1-yl)-methanone], for which, under setting [2], the IC50 amounted to 12900 nM.

Consider `COc1cnc(-c2cc(Cl)ccc2F)nc1Nc1ccncc1C(=O)NCCNCC[C@@H]1OC[C@@H](O)[C@H](O)[C@H]1O` [Compound 170, 4-[2-(5-Chloro-2-fluoro-phenyl)-5-methoxy-pyrimidin-4-ylamino]-N-{2-[2-(3,4,5-trihydroxy-tetrahydro-pyran-2-yl)-ethylamino]-ethyl}-nicotinamide], for which, under setting [2], the IC50 worked out at 6 nM.

Consider `COc1cnc(-c2cc(Cl)ccc2F)nc1Nc1ccncc1C(=O)NCCCNCCOC1O[C@H](CO)[C@@H](O)[C@H](O)[C@H]1O` (some centres unmarked) [Compound 134, 4-[2-(5-Chloro-2-fluoro-phenyl)-5-methoxy-pyrimidin-4-ylamino]-N-{3-[2-(3,4,5-trihydroxy-6-hydroxymethyl-tetrahydro-pyran-2-yloxy)-ethylamino]-propyl}-nicotinamide], for which, under setting [1], the IC50 came out at 12 nM.

The record behind these values is patent publication US20060281763A1, “Carboxamide inhibitors of TGFbeta” (priority 2005, published 2006).
